Test results as given in patent US20260176300A1, “N-ARYLPYRAZOLE NOD2 AGONISTS AS PROMOTERS OF IMMUNE CHECKPOINT INHIBITOR THERAPY” (THE SCRIPPS RESEARCH INSTITUTE, priority 2022, published 2026).
“Also recorded” adds a separate entry of the source.

Key:
[1] = test system: B16-F10 subcutaneous tumors; assay: B16-F10 tumor growth assay with anti-PD-L1 co-treatment; format: in vivo, mice; details: for B16 tumor growth over time: wild-type C57BL/6 mice, 100 μg α-PD-L1 and 100 μg compound i.p. every other day
Protocol: (§1) FIG. 3(A-H). NOD2 agonist TT030 activates cytokine production in vitro and improves immune checkpoint inhibitor treatment of tumor growth in vivo. A-D, Measurements of secreted cytokine levels from human peripheral mononuclear blood cells (PMBCs) treated with the indicated compounds for 24 h without or with lipopolysaccharide (LPS). E, Structures of TT030 and its enantiomer (TT030-ent). F, Activation of NOD1- and NOD2-expressing HEK-293T cells with the indicated compounds. C12-iE-DAP is a lipophilic version of the NOD1 agonist, iE-DAP. G, Growth profiles of B16-F10 subcutaneous tumors in wild-type C57BL/6 mice treated with 100 μg α-PD-L1 and 100 μg of the indicated compounds every other day starting at Day 7. H, Growth profiles of B16-F10 subcutaneous tumors in wild-type or Nod2^−/− C57BL/6 mice treated with 100 μg α-PD-L1 and 100 μg TT030 every other day starting at Day 7. Cytokine secretion assays and NOD activation assays were analyzed using a one-way ANOVA with Dunnett's multiple comparisons test compared to the DMSO control. Longitudinal tumor growth assays were analyzed using linear mixed-effects model analysis on the log transformed data. ns=not significant, *P<0.05, **P<0.01, ***P<0.001, ****P<0.0001.
Animals. Specific pathogen-free, eight-week old male C57BL/6J (B6, 000664) and B6.129S1—Nod2^tm1Flv/J (Nod2^−/−, 005763 from Flavell Lab, Yale School of Medicine) were obtained from The Jackson Laboratory. Animals were housed in autoclaved caging with SaniChip bedding and enrichment for nest building on a 12-hour light/dark cycle. Animals were provided gamma-irradiated chow (LabDiet, 5053) and sterile drinking water ad libitum. Animal care and experiments were conducted in accordance with NIH guidelines and approved by the Institutional Animal Care and Use Committee at Scripps Research (Protocol AUP-21-095).
Tumor growth assay. B16-F10 cells were subcultured on the day prior to harvesting for tumor inoculation. On the day of injection, cells were harvested using TrypLE Express, washed and resuspended in cold PBS, and counted with a hemocytometer. Cells were then resuspended at 2×10^6 cells mL^−1 in PBS and mixed 1:1 with Matrigel matrix (Corning; growth factor reduced, 356231). Cell suspensions were kept on ice prior to injection. Animals were anesthetized using 3% isoflurane, and their right flank was shaved with hair clippers. Animals were then subcutaneously injected with 100 μL of the cell suspension on their mid-right flank (1×10^5 cells per injection). Once tumors were established at roughly 25-100 mm^3, tumor volume was measured every other day. Digital calipers were used to measure the length and width of each tumor, and tumor volume was calculated as length×[…], where width was the smaller of the two measurements. […]

[2] = test system: human peripheral mononuclear blood cells (PBMCs); assay: Cytokine release assay in primary human PBMCs; format: cell-based; details: 10 μM, 24 h
Protocol: as §1
FIG. 7(A-B). NOD2 agonist TT030 activates cytokine production in vitro. A-B, Measurements of secreted cytokine levels from human peripheral mononuclear blood cells (PMBCs) treated with the indicated compounds for 24 h without or with lipopolysaccharide (LPS). Cytokine secretion assays and NOD activation assays were analyzed using a one-way ANOVA with Dunnett's multiple comparisons test compared to the DMSO control. *P<0.05, **P<0.01.
Cytokine release assay. Human PMBCs were obtained from whole blood donated by healthy individuals via the Scripps Normal Blood Donor Service. Whole blood was diluted 1:1 with phosphate-buffered saline (PBS) containing 2% FBS and then layered onto Lymphoprep (STEMCELL Technologies, 07851) in SepMate-50 isolation tubes (STEMCELL Technologies, 85480). The discontinuous gradient was centrifuged for 10 min at 1,200×g, and mononuclear cells were removed by pouring off. Mononuclear cells were then resuspended in PBS+2% FBS and centrifuged for 3 min at 200×g twice before further use. Washed mononuclear cells were then aliquoted at 5×10^5 cells per well of a 48-well plate with 300 μL RPMI containing 10% FBS (complete RPMI). Cells were then diluted with 100 μL complete RPMI containing 50 μM of the test compound (10 μM final concentration). Then, 100 μL complete RPMI (-LPS) or 100 μL complete RPMI containing […] LPS (+LPS, 10 ng mL^−1 final concentration) was added. Cells were incubated overnight at 37° C. in 5% CO2, and conditioned medium was harvested and centrifuged for 5 min at 500×g to remove residual cells. Samples were used directly for cytokine analysis with the LEGENDPlex Human Inflammatory Panel 1 (BioLegend, 740809) according to the manufacturer's protocol. For analysis, 25 μL of the conditioned medium was used for −LPS samples, and 12.5 μL was used for the +LPS samples. On-bead ELISA readouts were measured using the standard PE and APC detection filter parameters on a ZE5 flow cytometer (Bio-Rad; 405, 488, 561, and 640 lasers) in the Scripps Research Flow Cytometry Core Facility. Raw data files were then imported into the LEGENDPlex Cloud Data Analysis software suite (BioLegend) and analyzed using the manufacturer's pre-set parameters.

## CC(=O)N[C@H]1C(O)O[C@H](CO)[C@@H](O)[C@@H]1O[C@H](C)C(=O)N[C@@H](C)C(=O)N[C@H](CCC(=O)O)C(N)=O (stereo partly drawn) [MDP, (4R)-4-((2S)-2-((2R)-2-(((3R,4R,5S,6R)-3-acetamido-2,5-dihydroxy-6-(hydroxymethyl)tetrahydro-2H-pyran-4-yl)oxy)propanamido)propanamido)-5-amino-5-oxopentanoic acid, reference compound]
[1]
  B16 tumor growth over time: significantly inhibited tumor growth
[2]; without or with LPS
  IFNγ levels: increased
  interleukin-1 beta (IL-1B) in the medium: significant increase
  tumor necrosis factor alpha (TNFα) in the medium: significant increase

## CCOC(=O)CC[C@@H](NC(=O)[C@@H](NC(=O)c1c(C)nn(-c2cc[nH]c(=O)c2)c1C)C(C)C)C(=O)OCC [TT030, Diethyl (3,5-dimethyl-1-(2-oxo-1,2-dihydropyridin-4-yl)-1H-pyrazole-4-carbonyl)-L-valyl-D-glutamate]
[1]; Nod2−/− vs. wild-type C57BL/6 mice, 100 μg α-PD-L1 and 100 μg TT030 every other day
  Anti-tumor activity in Nod2−/− mice: loss in the anti-tumor activity
[1]
  B16 tumor growth over time: anti-tumor activity was also observed; also recorded: equivalent anti-tumor activity as MDP
[2]; with and without LPS
  IL-12p70 secretion: increase
[2]; without or with LPS
  IFNγ levels: increased
  IL-18 production: production
  IL-23 production: production
  interleukin-1 beta (IL-1B) in the medium: equivalent concentrations
  tumor necrosis factor alpha (TNFα) in the medium: equivalent concentrations
